{"source": "paper PMC6602958", "about": "“Pharmacokinetics of anti-infectious reagents in silkworms” (Scientific Reports, 2019)", "key": {"cytochrome P450 [1]": {"test_system": "cytochrome P450", "test": "7-ethoxycoumarin deethylation activity in silkworm tissue culture (fluorometry)", "format": "in vitro ADME, Bombyx mori (silkworm)", "details": "midgut, fat body, silk gland, Malpighian tubule in organ culture", "description": "Figure 2 Tissue specificity of 7-ethoxycoumarin deethylation activity in silkworm. (A) The midgut, fat body, silk gland, and Malpighian tubule were extirpated from silkworms and incubated in medium containing 7-ethoxycoumarin at 30 °C. Medium was collected, extracted by acetone, and evaporated. Samples […] in 50 mM NaOAc buffer (pH 6.0) were treated with beta-glucosidase. The amount of 7-hydroxycomarin, a metabolite, was determined by fluorometry. (B) Inhibition of 7-ethoxycoumarin deethylation by cimetidine in the silkworm midgut. Silkworm midgut was incubated in medium containing 7-ethoxycoumarin and cimetidine at 30 °C. Samples were collected, extracted by acetone, and treated with beta-glucosidase. The amount of 7-hydroxycomarin was determined by fluorometry.\nSamples for HPLC were dissolved in 50% methanol."}, "cytochrome P450 [2]": {"test_system": "cytochrome P450", "test": "Decay of cytochrome P450 substrates in in vitro culture of the silkworm midgut (HPLC)", "details": "for HPLC peak area of substrate, Sample 1 / HPLC peak area of substrate, Sample 2: midgut culture, raw data of Fig. 3; for HPLC peak area of substrate: silkworm (Bombyx mori)", "description": "Silkworm midgut was incubated in medium with cytochrome P450 substrates at 30 °C. The samples were collected, extracted by acetone, and evaporated. The amounts of substrates were determined by HPLC analysis.\nSilkworms (5th instar, 5 days) were dissected in a buffer (10 mM HEPES/NaOH, 0.9% NaCl, pH 7.9), and isolated organs were incubated with 3 mL TC-100 medium containing 10% fetal bovine serum, 50 µg/ml gentamicin, and substrates for the metabolic reaction. Whole samples (medium and organ) were homogenized and extracted by equal volumes of acetone followed by evaporation. Extracted samples were dissolved in 50 mM NaOAc buffer and treated with beta-glucosidase to measure the fluorescence of metabolized 7-ethoxycoumarin[6]. […] Samples for HPLC were dissolved in 50% methanol. HPLC analysis was performed using a PEGASIL ODS SP column (φ4.5 mm × 250 mm) with isocratic elution at a flow rate of 1 ml/min."}, "in vivo": {"test": "in vivo", "details": "for HPLC peak area in hemolymph: silkworm (Bombyx mori)", "description": "Antibiotics were injected into silkworm hemolymph and hemolymph was collected by cutting the legs at the indicated time.\nAntibiotics dissolved in saline were injected into the hemolymph of 5th instar silkworms using a 1-mL syringe attached to a 27 G needle. Hemolymph was harvested from abdominal appendages by cutting them with scissors at the indicated time-points after administration, and mixed with an equal volume of acetone. Samples were centrifuged at 15,000 rpm for 5 min at 4 °C, and the supernatants were evaporated with a centrifuge evaporator[18]. The dried materials were dissolved in 50% methanol and filtrated through a 0.45-µm filter. […] The amount of antibiotics in the sample was quantified from the peak area of the chromatogram."}, "[3]": {"details": "in vivo, 10 mg/kg; cited from earlier work"}, "Candida albicans [4]": {"test_system": "Candida albicans", "test": "Silkworm infection model with Candida albicans (ED50)", "format": "in vivo, Bombyx mori (silkworm)"}, "[5]": {"test": "Protein-binding capacity in silkworm hemolymph (filter unit, HPLC)", "details": "silkworm hemolymph"}, "[6]": {"details": "dog, cited from earlier work"}, "Candida albicans [7]": {"test_system": "Candida albicans", "test": "Antifungal activity (MIC) by micro dilution with or without silkworm hemolymph", "format": "cell-based", "description": "Antimicrobial and antifungal activities of each compound were measured by a micro dilution method[19],[20]. To measure protein binding to antifungal activity, silkworm hemolymph was collected by cutting the pseudopodium using scissors, and centrifuged at 3000 rpm for 5 min at 4 °C."}, "cytochrome P450 [8]": {"test_system": "cytochrome P450", "test": "Metabolism of luciferin derivatives in cultured silkworm midgut (P450-Glo, luminometer)", "format": "in vitro ADME, Bombyx mori (silkworm)", "details": "silkworm midgut incubated with luciferin substrate at 30 °C"}}, "note": "Where two headings read alike, the source gives them in different places.", "data": [{"smiles": "CCOc1ccc2ccc(=O)oc2c1", "note": "[7-ethoxycoumarin]", "values": [{"measurement": "Tissue with the highest capacity to metabolize the compound (in words)", "setting": "cytochrome P450 [1]", "result": "the midgut, not the fat body, had the highest capacity to metabolize"}]}, {"smiles": "Cn1c(=O)c2c(ncn2C)n(C)c1=O", "note": "[Caffeine]", "values": [{"measurement": "HPLC peak area of substrate, Sample 1", "setting": "cytochrome P450 [2]; 0 h", "result": 236597}, {"measurement": "HPLC peak area of substrate, Sample 2", "setting": "cytochrome P450 [2]; 0 h", "result": 235789}, {"measurement": "HPLC peak area of substrate, Sample 1", "setting": "cytochrome P450 [2]; 1 h", "result": 225184}, {"measurement": "HPLC peak area of substrate, Sample 2", "setting": "cytochrome P450 [2]; 1 h", "result": 213119}, {"measurement": "HPLC peak area of substrate, Sample 1", "setting": "cytochrome P450 [2]; 4 h", "result": 220757}, {"measurement": "HPLC peak area of substrate, Sample 2", "setting": "cytochrome P450 [2]; 4 h", "result": 220302}, {"measurement": "HPLC peak area of substrate, Sample 1", "setting": "cytochrome P450 [2]; 20 h", "result": 226873}, {"measurement": "HPLC peak area of substrate, Sample 2", "setting": "cytochrome P450 [2]; 20 h", "result": 222211}]}, {"smiles": "O=C(N[C@H](CO)[C@H](O)c1ccc([N+](=O)[O-])cc1)C(Cl)Cl", "note": "[Chloramphenicol]", "values": [{"measurement": "Cltot (total body clearance)", "setting": "in vivo; in vivo", "result": 0.15, "unit": "mL/g/h"}, {"measurement": "Time-course of the decrease in concentration in hemolymph (in words)", "setting": "in vivo; in vivo", "result": "biphasic"}, {"measurement": "half-life", "setting": "in vivo; in vivo", "result": 360, "unit": "min"}, {"measurement": "HPLC peak area in hemolymph", "setting": "in vivo; in vivo, 0.1 min", "result": 10505876}, {"measurement": "HPLC peak area in hemolymph", "setting": "in vivo; in vivo, 1 min", "result": 8079061}, {"measurement": "HPLC peak area in hemolymph", "setting": "in vivo; in vivo, 5 min", "result": 4188656}, {"measurement": "HPLC peak area in hemolymph", "setting": "in vivo; in vivo, 10 min", "result": 3076056}, {"measurement": "HPLC peak area in hemolymph", "setting": "in vivo; in vivo, 20 min", "result": 2727973}, {"measurement": "HPLC peak area in hemolymph", "setting": "in vivo; in vivo, 30 min", "result": 1928231}, {"measurement": "HPLC peak area in hemolymph", "setting": "in vivo; in vivo, 60 min", "result": 2239912}, {"measurement": "HPLC peak area in hemolymph", "setting": "in vivo; in vivo, 90 min", "result": 1941121}, {"measurement": "HPLC peak area in hemolymph", "setting": "in vivo; in vivo, 120 min", "result": 1803643}, {"measurement": "HPLC peak area in hemolymph", "setting": "in vivo; in vivo, 180 min", "result": 1414738}, {"measurement": "HPLC peak area in hemolymph", "setting": "in vivo; in vivo, 240 min", "result": 1202608}, {"measurement": "Cltot", "setting": "[3]", "result": 0.24, "unit": "mL/g/h"}]}, {"smiles": "O=C(O)Cc1ccccc1Nc1c(Cl)cccc1Cl", "note": "[Diclofenac]", "values": [{"measurement": "Metabolism in the silkworm midgut (in words)", "setting": "cytochrome P450 [2]", "result": "metabolized in the silkworm midgut"}, {"measurement": "HPLC peak area of substrate", "setting": "cytochrome P450 [2]; 0 h", "result": 2620000}, {"measurement": "HPLC peak area of substrate", "setting": "cytochrome P450 [2]; 1 h", "result": 2450000}, {"measurement": "HPLC peak area of substrate", "setting": "cytochrome P450 [2]; 4 h", "result": 2250000}, {"measurement": "HPLC peak area of substrate", "setting": "cytochrome P450 [2]; 20 h", "result": 1370000}]}, {"smiles": "OC(Cn1cncn1)(Cn1cncn1)c1ccc(F)cc1F", "note": "[Fluconazole]", "values": [{"measurement": "half-life", "setting": "in vivo; hemolymph", "result": 720, "unit": "min"}, {"measurement": "Cltot (total body clearance)", "setting": "in vivo; in vivo", "result": 0.02, "unit": "mL/g/h"}, {"measurement": "Time-course of the decrease in concentration in hemolymph (in words)", "setting": "in vivo; in vivo", "result": "biphasic"}, {"measurement": "HPLC peak area in hemolymph", "setting": "in vivo; in vivo, 0.1 min", "result": 4424583}, {"measurement": "HPLC peak area in hemolymph", "setting": "in vivo; in vivo, 1 min", "result": 3714240}, {"measurement": "HPLC peak area in hemolymph", "setting": "in vivo; in vivo, 5 min", "result": 1821531}, {"measurement": "HPLC peak area in hemolymph", "setting": "in vivo; in vivo, 10 min", "result": 2367593}, {"measurement": "HPLC peak area in hemolymph", "setting": "in vivo; in vivo, 20 min", "result": 2257323}, {"measurement": "HPLC peak area in hemolymph", "setting": "in vivo; in vivo, 30 min", "result": 2040721}, {"measurement": "HPLC peak area in hemolymph", "setting": "in vivo; in vivo, 60 min", "result": 1663340}, {"measurement": "HPLC peak area in hemolymph", "setting": "in vivo; in vivo, 105 min", "result": 1575678}, {"measurement": "HPLC peak area in hemolymph", "setting": "in vivo; in vivo, 120 min", "result": 1440231}, {"measurement": "HPLC peak area in hemolymph", "setting": "in vivo; in vivo, 180 min", "result": 1474050}, {"measurement": "HPLC peak area in hemolymph", "setting": "in vivo; in vivo, 240 min", "result": 1455753}, {"measurement": "HPLC peak area in hemolymph", "setting": "in vivo; in vivo, 360 min", "result": 1088734}, {"measurement": "Therapeutic effect in the silkworm infection model (in words)", "setting": "Candida albicans [4]; silkworm infection model", "result": "potent therapeutic effects at a low dose"}, {"measurement": "ED50", "setting": "Candida albicans [4]; silkworm infection model with Candida albicans", "result": 0.7, "unit": "mg/kg"}, {"measurement": "fraction unbound at 10 min, 10 µM", "setting": "[5]", "result": 0.35}, {"measurement": "Vdss", "setting": "[6]; dose 10 mg/kg", "result": 0.7, "unit": "mL/g"}, {"measurement": "t1/2", "setting": "[6]; dose 10 mg/kg", "result": 13.0, "unit": "h"}, {"measurement": "Cltot", "setting": "[6]; in vivo, 10 mg/kg", "result": 0.04, "unit": "mL/g/h"}, {"measurement": "MIC", "setting": "Candida albicans [7]; read-out: MIC with 10% hemolymph (B), with 10% silkworm hemolymph", "result": 3.2, "unit": "µg/mL"}, {"measurement": "MIC", "setting": "Candida albicans [7]; without silkworm hemolymph, read-out: MIC without hemolymph (A)", "result": 0.4, "unit": "µg/mL"}]}, {"smiles": "CC(C)OC(OC(C)C)C1CSC(c2nc3ccc(O)cc3s2)=N1", "note": "(centres unmarked) [Luciferin-IPA]", "values": [{"measurement": "Production of luciferin (RFU/organ)", "setting": "cytochrome P450 [8]", "result": "198,000 RFU/organ"}]}]}
